Assay results published in patent US20220184032A1, “INDOLINE DERIVATIVES FOR TREATMENT AND/OR PREVENTION OF FIBROSIS DISEASES” (Taipei Medical University, priority 2015, published 2022).
Read-outs that look alike come from different tables or passages of the source.

Experiments:
[1] = tested on: OVA-induced lung fibrosis; assay: OVA lung fibrosis mice model; format: in vivo; settings: weeks 4 to 12
Description: C57BL/6JNarl mice (8 weeks) were treated with OVA (50 μg/50 μl/day) or PBS (50 μl/day) by i.p. injection for 4 weeks. Then, mice were exposure of OVA (5% aerosol exposure) or PBS (aerosol exposure) for 8 weeks. TMU-C-0012 (25 mg/kg/day, q.d.) and dexamethasone (25 mg/kg/day, q.d.) were administered orally to OVA-injected mice from 4 weeks to 12 weeks. On weeks 12, the mice were sacrificed, and the histologic analysis of lung tissue was performed by hematoxylin-eosin (H&E) staining (original magnification, ×100).

[2] = tested on: BLM-induced lung fibrosis; assay: Bleomycin (BLM)-induced lung fibrosis mice model, therapeutic model; format: in vivo; settings: days 10 to 38 after BLM
Description: (§1) In preventive model, C57BL/6JNarl mice (8 weeks) were treated with bleomycin (BLM, 0.05 U/50 μl) or PBS (50 μl) by endotracheal administration. TMU-C-0012 (25, 50, 100 mg/kg/day, q.d.) and dexamethasone (0.5 mg/kg/day, q.d.) were administered orally to bleomycin-treated mice from 1 to 21 days after BLM treatment. On day 21, the mice were sacrificed and, the histologic analysis of lung tissue was performed by hematoxylin-eosin (H&E) staining (original magnification, ×100). In therapeutic model, C57BL/6JNarl mice (8 weeks) were treated with bleomycin (BLM, 0.05 U/50 μl) or PBS (50 μl) by endotracheal administration. TMU-C-0012 (25, 50, 100 mg/kg/day, q.d.) and pirfenidone (200 mg/kg/day, q.d.) were administered orally to bleomycin-treated mice from 10 to 38 days after BLM treatment. On day 39, the mice were sacrificed, and the histologic analysis of lung tissue was performed by hematoxylin-eosin (H&E) staining (original magnification, ×100).

[3] = tested on: Salmonella typhimurium TA100; assay: Ames test, TA100
Description: (§2) Two histidine auxotrophic mutants (TA98 and TA100) of Salmonella typhimurium were used. Test strains were obtained from the frozen working stock vial and thawed at room temperature. A 0.2 mL aliquot was inoculated into 25 mL nutrient broth medium and then incubated at 35-37° C. with shaking (120 rpm) for 16-18 hours. The test substance was dissolved in DMSO with 10-fold dilutions to obtain 4 stock concentrations at 30,000, 3,000, 300 and 30 μg/mL. Rat liver microsome enzyme homogenate (S9) mixture was prepared containing 8 mM MgCl2, 33 mM KCl, 4 mM NADP, 5 mM glucose-6-phosphate, 100 mM NaH2PO4 (pH 7.4) and 4% (v/v) Aroclor 1254-induced male rat liver microsome enzyme homogenate (S9). A […] aliquot of test compound stock solution was combined with 0.1 mL strain culture and with 0.5 mL rat liver enzyme homogenate (S9) mixture or 0.5 mL PBS, and then the mixture was incubated at 35-37° C. with shaking (120 rpm) for 20 min. Molten top agar (2 mL containing 0.05 mM histidine and 0.05 mM biotin) was added, and then the mixture was poured onto the surface of a minimal glucose agar plate (30 mL of bottom agar per petri plate) to obtain final test substance concentrations at 3000, 300, 30 and 3μg/plate. The plates were incubated at 37° C. for 72 hours, and then the numbers of His+ revertant colonies were counted. Treatments resulting in a three-fold increase (≥3×) in revertant colonies compared to the vehicle control were considered mutagenic. Treatments that reduced the colony counts to ≤50% of the vehicle control were considered cytotoxic. Assays were performed in triplicate.

in vitro = settings: Chinese hamster, CHO cells with S9, % Cytotoxicity Cell Numbers; for cytotoxicity at 31 µM: 3.1E−05 M
[4] = tested on: BLM-induced lung fibrosis; assay: Bleomycin (BLM)-induced lung fibrosis mice model, preventive model; format: in vivo; settings: days 1 to 21 after BLM
Description: as §1

[5] = tested on: Salmonella typhimurium TA98; assay: Ames test, TA98
Description: as §2

[6] = tested on: CC14-induced liver fibrosis; assay: CC14-induced liver fibrosis in mice; format: in vivo; settings: weeks 2 to 6
Description: C57BL/6JNarl mice (8 weeks) were treated with CC14 (1 μl/μg/BW, q.w.) or PBS (1 μl/μg/BW, q.w.) by i.p. injection for 6 weeks. TMU-C-0012 (25, 50, 100 mg/kg/day, q.d.) and pirfenidone (250 mg/kg/day, q.d.) were administered orally to CC14-injected mice from 2 weeks to 6 weeks. On day 43, the mice were sacrificed, and the α-SMA analysis of liver tissue was performed by IHC staining (original magnification, ×100).

[7] = reference compound, first section (CHO + S9, HCA), 3.6E−05 M
[8] = TA100, Without S9, 300 μg/plate
[9] = TA100, Without S9, 3000 μg/plate
[10] = first section (CHO + S9, HCA), 1.3E−04 M
[11] = first section (CHO + S9, HCA), 2.5E−04 M
[12] = first section (CHO + S9, HCA), 3.1E−05 M
[13] = first section (CHO + S9, HCA), 5.0E−04 M
[14] = first section (CHO + S9, HCA), 6.3E−05 M
[15] = second section (CHO + S9, HCA), 1.6E−05 M
[16] = second section (CHO + S9, HCA), 3.1E−05 M
[17] = second section (CHO + S9, HCA), 7.8E−06 M
[18] = TA98, Without S9, 3000 μg/plate

O=P1(N(CCCl)CCCl)NCCCO1 (stereo not shown) [Cyclophosphamide, reference compound]
% Cytotoxicity CBPI Index (CHO; [7]): 46.3% | % Micronucleated Cells (CHO; [7]): 5.31% | Test Result (CHO; [7]): + (p < 0.05 by t-test and % of micronucleated cells at least 3-fold higher than background levels.)

CO[C@@]12[C@H](COC(N)=O)C3=C(C(=O)C(C)=C(N)C3=O)N1C[C@@H]1N[C@@H]12 [Mitomycin C, reference compound]
% Micronucleated Cells (CHO; reference compound, second section (CHO + S9, HCA), 3.0E−07 M): 4.38%

O=C(/C=C/c1ccc2c(c1)CCN2S(=O)(=O)c1ccccc1)NO [TMU-C-0012, 3-(1-Benzenesulfonyl-2,3-dihydro-1H-indol-5-yl)-N-hydroxyacrylamide]
inhibition of OVA-induced lung fibrosis ([1]; 25 mg/kg/day q.d. orally, H&E lung histology week 12): inhibits OVA-induced lung fibrosis in a dose dependent manner | efficacy in inhibition compared with dexamethasone ([1]; dexamethasone 25 mg/kg/day q.d. orally): higher than dexamethasone | inhibition of BLM-induced lung fibrosis ([2]; 25, 50, 100 mg/kg/day q.d. orally, H&E lung histology day 39): inhibits BLM-induced lung fibrosis in a dose-dependent manner | efficacy in inhibition compared with pirfenidone ([2]; pirfenidone 200 mg/kg/day q.d. orally): higher than pirfenidone | Cytotoxicity ([3]; TA100, With S9, 3 μg/plate): − | Mutagenicity ([3]; TA100, With S9, 3 μg/plate): − | Cytotoxicity ([3]; TA100, With S9, 30 μg/plate): − | Mutagenicity ([3]; TA100, With S9, 30 μg/plate): − | Cytotoxicity ([3]; TA100, With S9, 300 μg/plate): − | Mutagenicity ([3]; TA100, With S9, 300 μg/plate): − | Cytotoxicity ([3]; TA100, With S9, 3000 μg/plate): − | Mutagenicity ([3]; TA100, With S9, 3000 μg/plate): − | Cytotoxicity ([3]; TA100, Without S9, 3 μg/plate): − | Mutagenicity ([3]; TA100, Without S9, 3 μg/plate): − | Cytotoxicity ([3]; TA100, Without S9, 30 μg/plate): − | Mutagenicity ([3]; TA100, Without S9, 30 μg/plate): − | Cytotoxicity [3, 8]: − | Mutagenicity [3, 8]: − | Cytotoxicity [3, 9]: − | Mutagenicity [3, 9]: − | % Cytotoxicity CBPI Index (CHO; [10]): 57.4% | % Micronucleated Cells (CHO; [10]): 1.45% | % Cytotoxicity CBPI Index (CHO; [11]): 62.2% | % Micronucleated Cells (CHO; [11]): 1.76% | % Cytotoxicity CBPI Index (CHO; [12]): 41.5% | % Micronucleated Cells (CHO; [12]): 1.64% | % Cytotoxicity CBPI Index (CHO; [13]): 68.8% | % Micronucleated Cells (CHO; [13]): 1.94% | % Cytotoxicity CBPI Index (CHO; [14]): 47.3% | % Micronucleated Cells (CHO; [14]): 1.26% | genotoxicity (micronucleus assay) (CHO; overall result of the assay): negative | Flat (CHO; second section (CHO + S9, HCA), 1.3E−04 M): CYTO (High cytotoxicity resulting in an insufficient number of scored cells (≥80% cytotoxicity)) | % Cytotoxicity CBPI Index (CHO; [15]): 53.1% | % Micronucleated Cells (CHO; [15]): 1.35% | Flat (CHO; second section (CHO + S9, HCA), 2.5E−04 M): CYTO (High cytotoxicity resulting in an insufficient number of scored cells (≥80% cytotoxicity)) | % Cytotoxicity CBPI Index (CHO; [16]): 58.8% | % Micronucleated Cells (CHO; [16]): 1.25% | Flat (CHO; second section (CHO + S9, HCA), 6.3E−05 M): CYTO (High cytotoxicity resulting in an insufficient number of scored cells (≥80% cytotoxicity)) | % Cytotoxicity CBPI Index (CHO; [17]): 26.7% | % Micronucleated Cells (CHO; [17]): 1.29% | cytotoxicity at 0.00013 M (in vitro; [10]): 37.6% | cytotoxicity at 0.00025 M (in vitro; [11]): 51.8% | cytotoxicity at 31 µM (in vitro; first section (CHO + S9, HCA)): 19.1% | cytotoxicity at 0.0005 M (in vitro; [13]): 61.7% | cytotoxicity at 63 µM (in vitro; [14]): 31.9% | cytotoxicity at 16 µM (in vitro; [15]): 60.4% | cytotoxicity at 31 µM (in vitro; second section (CHO + S9, HCA)): 69% | cytotoxicity at 7.8 µM (in vitro; [17]): 42.2% | inhibition of BLM-induced lung fibrosis ([4]; 25, 50, 100 mg/kg/day q.d. orally, H&E lung histology day 21): inhibits BLM-induced lung fibrosis in a dose-dependent manner | efficacy in the inhibition compared with dexamethasone ([4]; dexamethasone 0.5 mg/kg/day q.d. orally): higher than dexamethasone | Cytotoxicity ([5]; TA98, With S9, 3 μg/plate): − | Mutagenicity ([5]; TA98, With S9, 3 μg/plate): − | Cytotoxicity ([5]; TA98, With S9, 30 μg/plate): − | Mutagenicity ([5]; TA98, With S9, 30 μg/plate): − | Cytotoxicity ([5]; TA98, With S9, 300 μg/plate): − | Mutagenicity ([5]; TA98, With S9, 300 μg/plate): − | Cytotoxicity ([5]; TA98, With S9, 3000 μg/plate): − | Mutagenicity ([5]; TA98, With S9, 3000 μg/plate): − | Cytotoxicity ([5]; TA98, Without S9, 3 μg/plate): − | Mutagenicity ([5]; TA98, Without S9, 3 μg/plate): − | Cytotoxicity ([5]; TA98, Without S9, 30 μg/plate): − | Mutagenicity ([5]; TA98, Without S9, 30 μg/plate): − | Cytotoxicity ([5]; TA98, Without S9, 300 μg/plate): − | Mutagenicity ([5]; TA98, Without S9, 300 μg/plate): − | Cytotoxicity [5, 18]: − | Mutagenicity [5, 18]: − | genotoxicity (Ames test results) ([5]; overall Ames test result, TA98 and TA100, with and without S9): negative | inhibition on CC14-induced liver fibrosis ([6]; 25, 50, 100 mg/kg/day q.d. orally, α-SMA IHC of liver day 43): dose-dependent | efficacy in inhibition compared with pirfenidone ([6]; pirfenidone 250 mg/kg/day q.d. orally): higher than pirfenidone
